Measured values: US20250101052A1, “COMPOUND FOR EGFR KINASE INHIBITOR, COMPOSITION, AND USE THEREOF” (INNOVATION INSTITUTE FOR ARTIFICIAL INTELLIGENCE IN …, priority 2021, published 2025)

How the values were obtained:
[1] = molecular target: EGFR^L858R/T790M/C797S kinase (Homo sapiens (Human), UniProt P00533, C797S/L858R/T790M); experiment: EGFR^L858R/T790M/C797S kinase inhibitory activity experiment; format: biochemical; settings: in vitro
Method in brief: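 Human EGFR L858R/T790M/C797S mutant preincubated 10 min with compound (10-point dilution from 1 μM), then reacted 60 min at room temperature with ATP and kinase substrate 22. Substrate conversion read by Caliper mobility shift. % inhibition normalized to no-enzyme and no-compound wells, with IC50 from variable-slope log(inhibitor) fit.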

[2] = tested on: BaF3-EGFR^L858R/T790M/C797S cells; experiment: BaF3 cell proliferation inhibition experiment (CCK-8); format: cell-based; settings: Ba/F3 EGFR-L858R, 72 hours
Excerpt: BaF3 cell proliferation inhibition experiment: The compounds of the present invention have excellent inhibitory activity against the proliferation of BaF3-EGFR^L858R/T790M/C797S cells
A. Cell line: BaF3 cells with stable overexpression of wild-type genes are named BaF3-EGFR^WT, and BaF3 cells with stable overexpression of EGFR^L858R/T790M/C797S EGFR^del19/T790M/C797S EGFR^L858R/C797S and EGFR^del19/C797S mutant genes are named BaF3-EGFR^L858R/T790M/C797S BaF3-EGFR^del19/T790M/C797S BaF3-EGFR^L858R/C797S and BaF3-EGFR^del19/C797S cells, respectively. Mediums:
(§1) a) The medium was preheated in a 37° C. water bath.
(§2) b) The cryopreservation tube was taken from the liquid nitrogen tank, quickly placed in a 37° C. water bath, and melted completely within 1 minute.
(§3) c) The cell suspension was transferred to a 15 mL centrifuge tube containing a 10 mL medium and centrifuged at 1000 rpm for 4 minutes.
(§4) d) The supernatant was discarded, the cells were resuspended in a 1 mL medium and transferred to a […] culture dish containing a 10 mL medium, 20% serum and 50 ng/mL EGF were administered to the first-generation medium, and culture was conducted in a 37° C. and 5% CO2 incubator.
(§5) b) The cells in the culture dish were blown evenly with a 5 mL pipette, and 500 μL of the cells were pipetted out to be inoculated into a new […] culture dish and cultured in a 37° C. and 5% CO2 incubator.
(§6) a) The compound to be tested (10 mM stock solution) was diluted with 100% DMSO to 1 mM, and diluted with a culture solution in a 24-well plate to prepare of a working solution of 2 μM concentration.
(§7) b) The 2 μM working solution was diluted with a triple dilution method to obtain working solutions with approximate concentrations of 2 μM, 600 nM, 200 nM, 60 nM, and 20 nM.
(§8) a) The cells at the logarithmic growth phase were centrifuged at 1000 rpm for 4 minutes, resuspended with a medium (containing 10% serum and 50 ng/mL EGF), and counted.
(§9) b) The cells were inoculated into a 96-well plate with a cell density of 4000 cells/well, and placed in a 37° C. and 5% CO2 incubator for culture for 12 hours.
(§10) a) The prepared compound was added to a 96-well plate, with 100 μL per well. The final concentrations were 1 μM, 300 nM, 100 nM, 30 nM, 10 nM, and 0 nM, and the final concentration of DMSO was 0.2%. A medium served as a blank control.
(§11) b) The cells were placed in 37° C. and 5% CO2 incubator for culture for 72 hours.
(§12) (5) Cell Viability Testing
a) The 96-well cell culture plate was taken out, and 20 μL of a CCK-8 reagent (Cell Counting Kit-8, Topscience, Catalog No. C0005) was added in the dark.
b) Mixing well was conducted on a horizontal shaking table at a room temperature at 100 rpm for 5 minutes.
c) The culture plate was placed in a 37° C. constant-temperature incubator for incubation.
d) Starting from the addition of the CCK-8, the absorbance at 450 nm was read using the TECAN microplate reader at 1 hour, 2 hours, and 3 hours, respectively.
(§13) The data was analyzed using GraphPad Prism 8.0 software to obtain a fitted curve of activity of the compounds. The IC50 of the compounds was fitted from nonlinear regression equation.

A431 cells = experiment: A431 cell proliferation inhibition (SRB); format: cell-based; settings: Homo sapiens, A-431, wild-type EGFR, 72 hours
Experimental: A431 cell proliferation inhibition: The compounds of the present invention have good selectivity to wild-type EGFR
as §1, §2, §3, §4, §5, §6, §7, §8, §9, §10, §11, §12
a) The cell supernatant was discarded, rinsed once with 1×PBS, and fixed with 10% trichloroacetic acid for 1 hour. The trichloroacetic acid was discarded, excess trichloroacetic acid was washed off with tap water, and the 96-well plate was dried in a 60° C. oven.
b) 70 μL of an SRB stain was added to each well of the dry 96-well plate for staining at a room temperature for 30 minutes. Excess SRB stain was washed off with 1% glacial acetic acid, and the 96-well plate was dried in a 60° C. oven.
c) SRB was dissolved with 100 μL of 10 mM Tris-base solution. The absorbance was detected at 540 nm ultraviolet absorption using the microplate reader. The data was analyzed.
as §13

Sequence of EGFR^L858R/T790M/C797S kinase (P00533 25-1210 T790M/C797S/L858R): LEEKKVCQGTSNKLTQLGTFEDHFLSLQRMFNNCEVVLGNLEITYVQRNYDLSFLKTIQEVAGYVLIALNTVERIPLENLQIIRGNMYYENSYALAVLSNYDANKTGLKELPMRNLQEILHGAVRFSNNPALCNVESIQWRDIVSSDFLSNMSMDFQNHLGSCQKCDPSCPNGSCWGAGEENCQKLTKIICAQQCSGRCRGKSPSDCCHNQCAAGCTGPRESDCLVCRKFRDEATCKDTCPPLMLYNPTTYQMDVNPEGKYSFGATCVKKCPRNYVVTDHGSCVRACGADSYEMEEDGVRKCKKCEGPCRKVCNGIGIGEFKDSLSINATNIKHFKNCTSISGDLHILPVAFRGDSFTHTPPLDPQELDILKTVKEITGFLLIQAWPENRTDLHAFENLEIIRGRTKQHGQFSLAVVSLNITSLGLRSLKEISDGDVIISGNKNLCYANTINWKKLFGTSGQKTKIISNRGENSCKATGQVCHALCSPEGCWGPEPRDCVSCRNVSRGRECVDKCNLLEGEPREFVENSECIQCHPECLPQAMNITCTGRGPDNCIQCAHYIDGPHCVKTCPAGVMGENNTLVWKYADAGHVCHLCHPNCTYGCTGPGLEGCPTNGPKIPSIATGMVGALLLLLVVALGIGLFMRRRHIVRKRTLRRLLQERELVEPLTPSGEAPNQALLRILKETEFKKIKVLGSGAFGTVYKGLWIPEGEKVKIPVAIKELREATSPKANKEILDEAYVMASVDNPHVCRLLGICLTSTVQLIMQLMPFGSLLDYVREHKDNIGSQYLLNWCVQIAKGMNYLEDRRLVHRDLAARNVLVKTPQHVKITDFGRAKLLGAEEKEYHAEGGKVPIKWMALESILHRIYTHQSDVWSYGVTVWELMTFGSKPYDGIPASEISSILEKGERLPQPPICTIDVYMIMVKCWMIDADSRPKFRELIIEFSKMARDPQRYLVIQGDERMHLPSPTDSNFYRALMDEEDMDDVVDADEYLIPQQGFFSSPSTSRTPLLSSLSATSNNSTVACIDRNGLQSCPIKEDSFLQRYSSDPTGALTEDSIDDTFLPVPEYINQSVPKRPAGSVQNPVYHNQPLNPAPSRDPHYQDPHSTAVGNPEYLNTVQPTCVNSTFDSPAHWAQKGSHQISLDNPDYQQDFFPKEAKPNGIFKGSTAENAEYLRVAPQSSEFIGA

Compound | IC50 [1] [nM] | IC50 [2] [nM] | IC50 (A431 cells) [nM]
CCc1cc(Nc2ncc(Cl)c(Nc3ccc(C)c(C)c3P(C)(C)=O)n2)c(OC)cc1N1CCC(N2CCN(C)CC2)CC1 [Comparative Compound A, reference compound] | 0.54 | 47.3 | 207
CCc1cc(Nc2ncc(Cl)c(Nc3ccc(C)c(C)c3P(C)(C)=O)n2)c(OC)cc1N1CCC2(CC1)CC(N(C)C)C2 [Compound 6, (6-((5-chloro-2-((4-(2-(dimethylamino)-7-azaspiro[3.5]nonan-7-yl)-5-ethyl-2-methoxyphenyl)amino)pyrimidin-4-yl)amino)-2,3-dimethylphenyl)dimethylphosphine oxide] | 0.88 | 67.6 | > 1000
CCc1cc(Nc2ncc(Cl)c(Nc3ccc(C)c(C)c3P(C)(C)=O)n2)c(OC)cc1N1CC2(CCN(C)CC2)C1 [Compound 24, (6-((5-Chloro-2-((5-ethyl-2-methoxy-4-(7-methyl-2,7-diazaspiro[3.5]non-2-yl)phenyl)amino)pyrimidin-4-yl)amino)-2,3-dimethylphenyl)dimethylphosphine oxide] | 0.55 | 43.3 | > 1000
CCc1cc(Nc2ncc(Cl)c(Nc3ccc(C)c(C)c3P(C)(C)=O)n2)c(OC)cc1N1CCC(N2C[C@H]3CC[C@@H](C2)N3C)CC1 [Compound 51, (6-((5-chloro-2-((5-ethyl-2-methoxy-4-(4-((1R,5S)-8-methyl-3,8-diazabicyclo[3.2.1]octan-3-yl)piperidin-1-yl)phenyl)amino)pyrimidin-4-yl)amino)-2,3-dimethylphenyl)dimethylphosphine oxide] | 0.0452 | 131 | 745
